Results as given in US4863748A, “Dietary products and uses comprising methylsulfonylmethane” (priority 1986, dated 1989).

Columns and labels:
[1] = tested on: pruritis, acne, acne rosacea; test: Connective tissue and dermatological disorders (Example 13); format: in vivo, human
Text: Teenagers found methylsulfonylmethane in cola drinks a particularly acceptable satisfactory combination when treating acne. With rosacea, visual improvement was much slower.

Sclerotium rolfsii = test: Antifungal activity; format: cell-based; settings: 500 ppm
Text: (§1) While not as potent or toxic to microbial populations as specific drug agents, by reason of its extremely low host systemic toxicity, methylsulfonylmethane contrasts sharply with present antiinfective therapeutants and methodology. It is doubtful if chemical resistance will develop with infective agents controlled by high, but safe, systemic levels of methylsulfonylmethane.

Aspergillus niger = test: Antifungal activity; format: cell-based; settings: 500 ppm
Text: as §1

Phytophthora cinnamomi = test: Antifungal activity; format: cell-based; settings: 500 ppm
Text: as §1

Escherichia coli = test: In vitro antibacterial action; format: cell-based
Text: as §1

Leuconostoc citrovorum = test: In vitro antibacterial action; format: cell-based
Text: as §1

[2] = tested on: Streptococcus thermophilus; test: In vitro antibacterial action; format: cell-based
Text: as §1

Staphylococcus aureus = test: In vitro antibacterial action; format: cell-based
Text: as §1

Salmonello typhimurium = test: In vitro antibacterial action; format: cell-based
Text: as §1

acute pain = test: Acute pain (Example 21); format: in vivo, human; settings: single 1.5 gm dose; two 1 gm doses at 4-hour intervals, oral
[3] = tested on: rheumatoid arthritis and other intense pain-producing disease; test: Intravenous administration in acute intense pain-producing disease; format: in vivo, human
Text: In U.S. Pat. No. 4,296,130, I teach that methylsulfonylmethane is so inert and non-toxic that aqueous solutions thereof can be used as a blood diluent. In healthy humans or other animals having adequately high methylsulfonylmethane blood levels, methylsulfonylmethane is in fact "inert" in the sense the term is used in that patent. However, in acutely ill patiets, dramatic beneficial benefits are often obtained by the intravenous administration of large doses of methylsulfonylmethane. For example, rheumatoid arthritic patients suffering from a flair-up of the disease which produces intense pain or crippling swelling of the joints or both achieve prompt relief, even those patients who obtain only minimal or delayed benefits from oral ingestion of methylsulfonylmethane.
Apparently, when a patient is in an acute stage of intense pain-producing disease, such as rheumatoid arthritis, osteoporosis, degenerative disc syndrome, an autoimmune disease or metathesized carcinoma, which produces intense pain, the relief from pain from oral ingestion of methylsulfonylmethane is sometimes too subtle or takes too long for the patient to obtain reasonably prompt subjective benefits therefrom.
Therefore, in one aspect this invention relates to a method for rapidly ameliorating at least the pain associated with an intense pain-producing disease by the intravenous administration of methylsulfonylmethane in an amount effective to ameliorate the pain.
The amount of methylsulfonylmethane intravenously administered can vary substantially because of its lack of toxicity and adverse side effects. Individual doses can vary from about 0.01 to 2 gm/kg, preferably from about 0.1 to 1 gm/kg, on a body weight basis, the usual dosage range is about 0.25 to 0.75 gm/kg, preferably about 0.5 gm/kg.
When large amounts are administered, e.g., in the order of 1 g/kg of body weight or more, i.e., infusion of 5% to 10% solution of methylsulfonylmethane in water, physiological saline or 5% dextrose is preferred. The rate of administration is preferably no greater than about 1 gm/kg/hr, although infusion rates as high as 2 gm/kg/hr are tolerated by patients, except for light-headedness of the type experienced by some blood donors is experienced by some patients at this rate.
For patients suffering from a serious chronic disease, e.g., an acute stage of rheumatoid arthritis or other acute inflammatory conditions or a patient in extreme pain, administer 1 gm/kg of methylsulfonylmethane i.v. as a 14% by wt. solution in sterile 5% dextrose solution, at the rate of 1 gm/kg/hr. Within 2-4 hours, significant subjective relief from the symptoms of the disease or condition is experienced by the patient, with the relief lasting for from 7 to 21 days.

[4] = tested on: urinary taurine secretion; settings: man; cited from earlier work
arthritis = test: Canine arthritis and other sources of pain (Example 30); format: in vivo, dog
Text: In each case the methylsulfonylmethane was admixed with the animal's food just prior to feeding.
This animal, although owned by a veterinarian, had not responded to a variety of therapeutic regimens over the previous 12 months. Methylsulfonylmethane was given to this dog in its food at a level of 1.5 grams b.i.d. X 1 month.
It was mobile but walked with obvious difficulty and discomfort. The animals was refractory to both cortisone and phenylbutazone.
The animal had not responded to either cortisone nor phenylbutazone and its condition was deteriorating rapidly. Methylsulfonylmethane was included in its diet at 1 gm/day b.i.d. After one week, the dog appeared to be pain-free.

mood and depression = test: Mental normalcy (Example 16); format: in vivo, human
Experimental: Students reported that while taking methylsulfonylmethane, their ability to concentrate is enhanced. Methylsulfonylmethane therefore is useful in conjunction with CNS therapeutants. The most useful application for methylsulfonylmethane seen to date in the field of mental normalizing is as an aid to the terminally ill, to relieve anxiety and depression.
To a chronically or terminally ill patient suffering from mental depression, administer […] body weight of methylsulfonylmethane daily, in tablet or capsule form, dissolved in water or a cold beverage, or admixed in a cold food. Within 12 hours to 2 days, a significant improvement in the mental attitude of the patient will be noted.

[5] = tested on: myositis ossificans generalis; test: Myositis ossificans generalis (Example 35); format: in vivo, human; settings: one teaspoon orally in split daily doses, nearly two years
Text: Their family belongs to a group of families each with a family member suffering from the disease. They have been on one teaspoon of methylsulfonylmethane orally, in split daily doses for nearly two years. […] No other child in the group is on methylsulfonylmethane and all are deteriorating physically. The disease cause is unknown but probably is a genetic/autoimmune type of disorder.

[6] = 1 gm/kg i.v., 14% solution in 5% dextrose, 1 gm/kg/hr (Example 34)

## CS(C)(=O)=O [methylsulfonylmethane]
[1]; about 100-1000 mg per day
  response of pruritis and acne: respond promptly
[1]; diet supplemented
  response of dermatological problems: respond favorably
[1]; in vivo
  visual improvement with rosacea: much slower
[1]; subject three, 500 mg daily
  time before telangiectasis diminished: at least several weeks
Sclerotium rolfsii
  antiparasitic (antifungal) activity: good antiparasitic activity
Aspergillus niger
  antiparasitic (antifungal) activity: good antiparasitic activity
Phytophthora cinnamomi
  antiparasitic (antifungal) activity: good antiparasitic activity
Escherichia coli
  in vitro antibacterial action: weak
Leuconostoc citrovorum
  in vitro antibacterial action: weak
[2]
  in vitro antibacterial action: weak
Staphylococcus aureus
  in vitro antibacterial action: weak
Salmonello typhimurium
  in vitro antibacterial action: weak
Acute pain
  relief of acute mid-back pain (calculi obstructed ureter) and lower abdomen pain spasms: proven useful in relieving acute pain
[3]; [6]
  duration of relief: 7 to 21 days
  time to significant subjective relief from symptoms: 2 to 4 h
[3]; i.v.
  time to relief from pain: within hours and often within minutes
[3]; i.v., large doses
  relief in flare-up of rheumatoid arthritis: prompt relief
[3]; one i.v., then oral
  duration of remission maintained with oral ingestion after one i.v. administration: weeks or months
[4]
  urinary taurine secretion produced by aromatic hydrocarbons: enhances
arthritis; Dog A, 0.5 g/day b.i.d., 7 days
  benefit, Dog A: without apparent benefit
arthritis; Dog A, 1.5 g/day b.i.d.
  time to free mobility without evident discomfort nor ataxia, Dog A: ≤ 10 days
arthritis; Dog B, 1.5 grams b.i.d. X 1 month
  benefit, Dog B: no apparent benefit
arthritis; Dog C, 0.5 grams b.i.d.
  mobility over the first month, Dog C: gradual improvement
  musculoskeletal restriction and discomfort in third month, Dog C: neither musculoskelatal restriction nor discomfort
arthritis; Dog D, 1 gm/day b.i.d.
  pain after one week, Dog D: pain-free
  state at over six months, Dog D: apparently healthy and frisky, requiring no medication
Mood and depression; 1000 mg/kg body weight daily, chronically or terminally ill patient
  time to significant improvement in mental attitude: Within 12 hours to 2 days
Mood and depression; reported by individuals
  alertness: increased alertness
  depression frequency: very infrequent depression
  mood changes: a plateau of mood changes
Mood and depression; students
  ability to concentrate: enhanced
Mood and depression; subjects intermittently on antidepression medication, days with prior medication
  time to relief of depression: within hours rather than days
[5]
  condition of the patient: out of their wheelchair and is improving
[5]; child A. Z.
  disease process: stopped
